One experiment has as its target T1, hepatic lipase (HL) (Homo sapiens, UniProt P11150).
T1 construct: made in house; host or cells: COS cells (conditioned medium, partially purified)
T1 sequence (P11150 23-499): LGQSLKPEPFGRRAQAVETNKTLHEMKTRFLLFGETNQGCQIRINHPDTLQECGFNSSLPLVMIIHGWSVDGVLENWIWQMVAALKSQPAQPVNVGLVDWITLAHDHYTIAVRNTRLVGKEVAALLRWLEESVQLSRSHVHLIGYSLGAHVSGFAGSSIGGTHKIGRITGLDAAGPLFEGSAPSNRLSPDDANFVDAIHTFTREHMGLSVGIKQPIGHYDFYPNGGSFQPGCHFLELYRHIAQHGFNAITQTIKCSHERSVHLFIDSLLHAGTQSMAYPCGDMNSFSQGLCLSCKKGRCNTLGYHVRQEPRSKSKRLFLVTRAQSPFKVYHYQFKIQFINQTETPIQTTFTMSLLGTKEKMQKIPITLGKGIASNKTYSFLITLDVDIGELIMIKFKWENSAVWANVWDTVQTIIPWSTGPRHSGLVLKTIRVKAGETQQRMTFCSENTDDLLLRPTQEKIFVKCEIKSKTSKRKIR
Briefly: Hepatic lipase (HL) enzymatic assay, fluorescent substrate A10070 in DMPG vesicles. Format: biochemical. The settings on record: HL partially purified from conditioned media of COS cells; compound preincubated 30 min at 37° C; read-out: HL IC50. The method, boiled down:
(§1)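 Vesicles prepared: A10070 dried with DMPG, resuspended in HEPES pH 8.0/NaCl/EDTA, sonicated on ice. Enzyme incubated with compound 30 min at 37° C. Reaction started with 1:10 diluted vesicles. Fluorescence (490/530 nm) followed 60 min; slope from 300–900 secs gives rate.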

The target in a further experiment is T2, Endothelial lipase (EL) (Homo sapiens, UniProt Q9Y5X9).
T2 construct: HT-1080 cells that were transformed using RAGE technology (Athersys) to overexpress endogenous EL; endogenous in cells; conditioned medium used
T2 sequence (Q9Y5X9 21-500): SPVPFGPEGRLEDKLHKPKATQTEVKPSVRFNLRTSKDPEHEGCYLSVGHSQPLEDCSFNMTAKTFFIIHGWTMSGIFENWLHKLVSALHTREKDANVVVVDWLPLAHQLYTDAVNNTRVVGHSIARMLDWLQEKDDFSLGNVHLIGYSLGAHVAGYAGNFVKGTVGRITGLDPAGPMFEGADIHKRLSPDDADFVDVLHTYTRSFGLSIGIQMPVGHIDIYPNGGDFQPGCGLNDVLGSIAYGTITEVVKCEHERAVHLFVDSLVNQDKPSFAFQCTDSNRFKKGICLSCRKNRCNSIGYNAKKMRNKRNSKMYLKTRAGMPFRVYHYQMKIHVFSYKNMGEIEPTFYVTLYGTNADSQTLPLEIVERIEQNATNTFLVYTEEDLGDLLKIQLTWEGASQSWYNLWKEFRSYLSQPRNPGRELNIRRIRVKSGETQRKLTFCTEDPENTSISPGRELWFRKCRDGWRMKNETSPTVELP
Briefly: Endothelial lipase (EL) enzymatic assay, fluorescent substrate A10070 in DMPG vesicles. Format: biochemical. The settings on record: EL from conditioned media of HT-1080 cells; compound preincubated 30 min at 37° C; read-out: EL IC50. In a few lines: as §1

Turning to `O=C(NCCS(=O)(=O)C(c1nnc(CC2SC(=O)NC2=O)o1)c1nc2cc(F)c(-c3ccccc3)cc2s1)OCc1ccccc1` (stereo not shown) [Example 167, benzyl (2-(((5-((2,4-dioxo-1,3-thiazolidin-5-yl)methyl)-1,3,4-oxadiazol-2-yl)(5-fluoro-6-phenyl-1,3-benzothiazol-2-yl)methyl)sulfonyl)ethyl)carbamate], the half-maximal inhibitory concentration (IC50) on hepatic lipase (HL) and at Endothelial lipase (EL) was < 10 nM throughout.
Consider `CS(=O)(=O)C(c1nnc(C[C@@H]2NS(=O)(=O)NC2=O)o1)c1nc2cc(F)c(-c3ccccc3)cc2s1` (stereo partly drawn) [Example 168, (4S)-4-((5-((5-fluoro-6-phenyl-1,3-benzothiazol-2-yl)(methylsulfonyl)methyl)-1,3,4-oxadiazol-2-yl)methyl)-1,2,5-thiadiazolidin-3-one 1,1-dioxide], for which the IC50 on hepatic lipase (HL) was 19 nM; at Endothelial lipase (EL), < 10 nM.
Taken in the same sequence, the figures for `CC(=O)NS(=O)(=O)Cc1nnc(C(c2nc3ccc(-c4ccccc4)cc3s2)S(C)(=O)=O)o1` (stereo not shown) [Example 169, N-(((5-((Methylsulfonyl)(6-phenyl-1,3-benzothiazol-2-yl)methyl)-1,3,4-oxadiazol-2-yl)methyl)sulfonyl)acetamide] were 160 nM and < 10 nM.
Taken in the same sequence, the figures for `CC(O)CS(=O)(=O)C(c1nnc(CNS(N)(=O)=O)o1)c1nc2ccc(-c3ccccc3)cc2s1` (stereo not shown) [Example 170, N-((5-(((2-Hydroxypropyl)sulfonyl)(6-phenyl-1,3-benzothiazol-2-yl)methyl)-1,3,4-oxadiazol-2-yl)methyl)sulfamide] were < 10 nM and < 10 nM.
For the molecule `CS(=O)(=O)NCc1nnc(C(c2nc3ccc(-c4ccc(F)nc4)cc3s2)S(C)(=O)=O)o1` (stereo not shown) [Example 172, N-((5-((6-(6-Fluoro-3-pyridinyl)-1,3-benzothiazol-2-yl)(methylsulfonyl)methyl)-1,3,4-oxadiazol-2-yl)methyl)methanesulfonamide], the IC50 was determined as 32 nM at hepatic lipase (HL) and 240 nM at Endothelial lipase (EL).
Taken in the same sequence, the figures for `CS(=O)(=O)NCc1nnc(C(c2nc3ccc(-c4ccc(C(=O)N5CCOCC5)cc4)cc3s2)S(C)(=O)=O)o1` (stereo not shown) [Example 173, N-((5-((Methylsulfonyl)(6-(4-(4-morpholinylcarbonyl)phenyl)-1,3-benzothiazol-2-yl)methyl)-1,3,4-oxadiazol-2-yl)methyl)methanesulfonamide] were 58 nM and 35 nM.
Take `Cn1cc(-c2ccc3nc(C(c4nnc(CNS(N)(=O)=O)o4)S(=O)(=O)CCC(=O)O)sc3c2)cn1` (stereo not shown) [Example 174, 3-(((6-(1-Methyl-1H-pyrazol-4-yl)-1,3-benzothiazol-2-yl)(5-((sulfamoylamino)methyl)-1,3,4-oxadiazol-2-yl)methyl)sulfonyl)propanoic acid]: the results for the half-maximal inhibitory concentration (IC50) on hepatic lipase (HL) and at Endothelial lipase (EL) were 124 nM and 11 nM, respectively.
On the same counts, the results for `CCCOCCCNC(=O)Cc1nnc(C(c2nc3ccc(-c4ccc(C(=O)N5CCOCC5)cc4)cc3s2)S(C)(=O)=O)o1` (stereo not shown) [Example 175, 2-(5-((Methylsulfonyl)(6-(4-(4-morpholinylcarbonyl)phenyl)-1,3-benzothiazol-2-yl)methyl)-1,3,4-oxadiazol-2-yl)-N-(3-propoxypropyl)acetamide] are 89 nM and 12 nM.
On the same counts, the results for `CC(O)CCNC(=O)Cc1nnc(C(c2nc3ccc(-c4ccc(C(=O)N5CCOCC5)cc4)cc3s2)S(C)(=O)=O)o1` (stereo not shown) [Example 176, N-(3-hydroxybutyl)-2-(5-((methylsulfonyl)(6-(4-(4-morpholinylcarbonyl)phenyl)-1,3-benzothiazol-2-yl)methyl)-1,3,4-oxadiazol-2-yl)acetamide] are 465 nM and 10 nM.
On the same counts, the results for `CC(O)CCNC(=O)Cc1nnc(C(c2nc3ccc(-c4ccc(C(=O)N5CCOCC5)cc4)cc3s2)S(=O)(=O)Cc2ccccc2)o1` (stereo not shown) [Example 177, 2-(5-((benzylsulfonyl)(6-(4-(4-morpholinylcarbonyl)phenyl)-1,3-benzothiazol-2-yl)methyl)-1,3,4-oxadiazol-2-yl)-N-(3-hydroxybutyl) acetamide] are 591 nM and 14 nM.
Take `O=C(Cc1nnc(C(c2nc3ccc(-c4ccc(C(=O)N5CCOCC5)cc4)cc3s2)S(=O)(=O)Cc2ccccc2)o1)NCC1(O)CCC1` (stereo not shown) [Example 178, 2-(5-((benzylsulfonyl)(6-(4-(4-morpholinylcarbonyl)phenyl)-1,3-benzothiazol-2-yl)methyl)-1,3,4-oxadiazol-2-yl)-N-((1-hydroxycyclobutyl)methyl) acetamide]: the figures for the concentration for half-maximal inhibition (IC50) on hepatic lipase (HL) and on Endothelial lipase (EL) were 277 nM and < 10 nM, respectively.
For `CC(O)CNC(=O)Cc1nnc(C(c2nc3ccc(-c4ccc(C(=O)N5CCOCC5)cc4)cc3s2)S(=O)(=O)Cc2ccccc2)o1` (stereo not shown) [Example 179, 2-(5-((benzylsulfonyl)(6-(4-(4-morpholinylcarbonyl)phenyl)-1,3-benzothiazol-2-yl)methyl)-1,3,4-oxadiazol-2-yl)-N-(2-hydroxypropyl) acetamide], the IC50 at hepatic lipase (HL) is 518 nM; at Endothelial lipase (EL), < 10 nM.
Taken in the same sequence, the figures for `O=C(Cc1nnc(C(c2nc3ccc(-c4ccc(C(=O)N5CCOCC5)cc4)cc3s2)S(=O)(=O)Cc2ccccc2)o1)NC1CCCC1` (stereo not shown) [Example 180, 2-(5-((benzylsulfonyl)(6-(4-(4-morpholinylcarbonyl)phenyl)-1,3-benzothiazol-2-yl)methyl)-1,3,4-oxadiazol-2-yl)-N-cyclopentylacetamide] were 44 nM and < 10 nM.
On the same counts, the results for `CS(=O)(=O)C(c1nnc(C[C@@H]2NS(=O)(=O)N(C3CC3)C2=O)o1)c1nc2ccc(-c3ccccc3)cc2s1` (stereo partly shown) [Example 181] are 56 nM and 130 nM.
As for `CS(=O)(=O)C(c1nnc(CC2SC(=O)NC2=O)o1)c1nc2ccc(-c3cnc(O)nc3)cc2s1` (stereo not shown) [Example 182, 5-((5-((Methylsulfonyl)(6-(2-oxo-1,2-dihydro-5-pyrimidinyl)-1,3-benzothiazol-2-yl)methyl)-1,3,4-oxadiazol-2-yl)methyl)-1,3-thiazolidine-2,4-dione], the concentration for half-maximal inhibition (IC50) at hepatic lipase (HL) is 84 nM; on Endothelial lipase (EL), < 10 nM.
Taken in the same sequence, the figures for `NCCS(=O)(=O)C(c1nnc(CNS(N)(=O)=O)o1)c1nc2ccc(-c3ccc(C(=O)N4CCOCC4)cc3)cc2s1` (stereo not shown) [Example 183, N-{[5-([(2-Aminoethyl)sulfonyl]{6-[4-(4-morpholinylcarbonyl)phenyl]-1,3-benzothiazol-2-yl}methyl)-1,3,4-oxadiazol-2-yl]methyl}sulfuric diamide] were 178 nM and 14 nM.
Regarding `NCCS(=O)(=O)C(c1nnc(CC2SC(=O)NC2=O)o1)c1nc2ccc(-c3ccccc3)cc2s1` (stereo not shown) [Example 184, 5-((5-(((2-aminoethyl)sulfonyl)(6-phenyl-1,3-benzothiazol-2-yl)methyl)-1,3,4-oxadiazol-2-yl)methyl)-1,3-thiazolidine-2,4-dione], the IC50 at hepatic lipase (HL) and at Endothelial lipase (EL) was < 10 nM throughout.
On to `NCCS(=O)(=O)C(c1nnc(CC2SC(=O)NC2=O)o1)c1nc2ccc(-c3ccc(C(=O)N4CCOCC4)cc3)cc2s1` (stereo not shown) [Example 185, 5-{[5-([(2-aminoethyl)sulfonyl]{6-[4-(4-morpholinylcarbonyl)phenyl]-1,3-benzothiazol-2-yl}methyl)-1,3,4-oxadiazol-2-yl]methyl}-1,3-thiazolidine-2,4-dione], for which the 50% inhibitory concentration (IC50) at hepatic lipase (HL) was 70 nM; on Endothelial lipase (EL), < 10 nM.
Regarding `NCCS(=O)(=O)C(c1nnc(CC2SC(=O)NC2=O)o1)c1nc2cc(F)c(-c3ccccc3)cc2s1` (stereo not shown) [Example 186, 5-((5-(((2-aminoethyl)sulfonyl)(5-fluoro-6-phenyl-1,3-benzothiazol-2-yl)methyl)-1,3,4-oxadiazol-2-yl)methyl)-1,3-thiazolidine-2,4-dione], the half-inhibitory concentration (IC50) on hepatic lipase (HL) was 49 nM; on Endothelial lipase (EL), < 10 nM.
On the same counts, the results for `NCCS(=O)(=O)C(c1nnc(CNS(N)(=O)=O)o1)c1nc2ccc(-c3ccccc3)cc2s1` (stereo not shown) [Example 187, N-[(5-{[(2-aminoethyl)sulfonyl](6-phenyl-1,3-benzothiazol-2-yl)methyl}-1,3,4-oxadiazol-2-yl)methyl] sulfuric diamide] are 12 nM and < 10 nM.

A word on the IC50: it is the concentration at which inhibition is half-maximal.

(Values after patent US20140011799A1 (Bristol-Myers Squibb Company, priority 2012, published 2014).)
